# Read-outs that look alike come from different tables or passages of the source.
# Legend:
# PDK1 [1] = biological target: T1, PDK1 (Homo sapiens (Human), UniProt O15530); test: Time resolved-FRET LanthaScreen Kinase Binding Assay
# Text: Binding of the tracer to the kinase is detected using a europium-labeled anti-tag antibody, which binds to the kinase of interest. […] Binding of an inhibitor to the kinase competes for binding with the tracer, resulting in a loss of FRET.
# Activity of compounds was routinely assessed using a secondary assay as described herein. The secondary assay was a time resolved-FRET LanthaScreen Kinase Binding Assay (Invitrogen Corporation, Carlsbad, Calif.). This assay evaluates the ability of the test compound to compete with a fluorescently-labeled tracer molecule to bind in the ATP pocket of a kinase. The assay signal is generated when a Europium-conjugated anti-His tag antibody (Invitrogen) bound to the His-tagged kinase produces a TR-FRET signal with the tracer molecule bound in the ATP pocket of the kinase. […] After 60 minutes of incubation at room temperature, the TR-FRET signal was measured on an EnVision microplate reader.
# IC50 values are determined using GraphPad Prism 5 software. The data were entered as an X-Y plot into the software as percent inhibition for each concentration of the drug. The concentration values of the drug were log transformed and the nonlinear regression was carried out using the “sigmoidal dose-response (variable slope)” option within the GraphPad software to model the data and calculate IC50 values.
# PDK1 [2] = biological target: T1, PDK1; test: PDK1 fluorometric activity assay performed by Life Technologies; format: biochemical; settings: for IC50: fluorometric assay performed by Life Technologies (Table IV), read-out: PDK1 Kinase assays (IC50)
# Method: PDK1 biochemical activity was measured by a fluorometric assay performed by Life Technologies (Grand Island, N.Y.). The assay conditions for PDK1 are as follows. The 2×PDK1/Ser/Thr-07 mixture is prepared in 50 mM Tris pH 8.5, 0.01% BRIJ-35, 10 mM MgCl2, 1 mM EGTA, 0.02% NaN3.
# The kinase specificity was measured using fluorometric assays performed by Life Technologies (Grand Island, N.Y.). Assay conditions vary for each kinase and are available from Life Technologies, Grand Island, NY. For example, the assay conditions for PDK1 are as follows. The 2×PDK1/Ser/Thr-07 mixture is prepared in 50 mM Tris pH 8.5, 0.01% BRIJ-35, 10 mM MgCl2, 1 mM EGTA, 0.02% NaN3.
# HS578T cell line = test: Cell viability after PTEN shRNA knockdown; format: cell-based; settings: Homo sapiens, Hs-578T
# Method: The lentiviral particles with PTEN shRNA or scrambled siRNA (ssi RNA) were purchased from Thermo Scientific. The cells were seeded in a 24-well plate and incubated overnight in RPMI full media. The media was removed and the cells were transfected with either siRNA or ssiRNA particles in serum/antibiotic free RPMI media. Six hours post-transduction, 1 ml of full media (serum plus penicillin/streptomycin) was added and the cells were incubated overnight. At 48 hours post-transduction fresh media with puromycin was added. The media was replaced with fresh puromycin containing media every 2 days. qPCR and western blot analysis was used to evaluate the level of PTEN knockdown.
# AN3-CA (PTEN-deficient), RL95-2 (PTEN-deficient), and HEC-1A (PTEN-wild type) cells were plated in 45 μl of RPMI-1640 media supplemented with 10% FBS and 1% Pen/Strep at a density of 1000 cells per well in white 384-well plates. Cells were allowed to attach by incubation overnight at 37° C. and 5% CO2. Test compounds were diluted to 10× concentrations in RPMI-1640 media (containing 3% DMSO) and 5 μl 1 of these dilutions were added in triplicate to the appropriate wells containing the cells. The plates containing the drug-treated cells and appropriate controls were incubated for 96 hours. At the end of the incubation, 40 μl of ATP-lite (PerkinElmer, Inc., Waltham, Massachussetts) reagent were added to each well and luminescence signal was measured on an EnVision microplate reader.
# In the figures, cell viability is shown as “Toxicity” and the cell viability assay was carried out as described above.
# [3] = test system: phosphorylation of the ribosomal protein s6 in AN3-CA cells; test: In-cell western, phosphorylation of ribosomal protein s6; format: cell-based; settings: Homo sapiens, 2 hours
# Method: Cells were washed with PBS and whole cell lysates were prepared by incubating cells in […] (Invitrogen Corporation, Carlsbad, Calif.) supplemented with Protease Inhibitor Cocktail (Roche Applied Science, a division of Roche Diagnostics Corporation, Indianapolis, Ind.) and Phosphatase Inhibitor Cocktail (Roche) on ice for 30 minutes. After centrifuging the lysates at 12,000 rpm for 10 minutes at 4° C., the supernatant was collected. Protein concentration was determined using BCA Assay. The same amounts of protein were run on NuPAGE 4-12% Bis-Tris Gel, and then transferred onto a PVDF membrane. After blocking with Odyssey Blocking Buffer for 1 hour at room temperature, the membrane was incubated with primary antibodies (Cell Signaling Technology, Inc., Danvers, Massachussetts) overnight at 4° C. followed by 40 minute incubation with IRDye secondary antibody. The membrane was scanned using Odyssey Infrared Imaging System. […]
# Briefly, ribosomal protein S6 was detected using differentially labeled antibodies specific for either total S6 protein or the phosphorylated form of the protein. In-cell detection with visual overlay of the signals for each antibody, e.g. total ribosomal protein s6 (red) and phospho-ribosomal protein s6 (green), allowed simultaneous detection and quantitation. Quantitation of signal intensity allowed determination of IC50 values for the test compounds.
# AN3-CA cells = test: Mouse subcutaneous xenograft tumor model, tumor volume; format: in vivo, athymic nude mice; settings: 50 mg/kg IP, daily Monday through Friday for two weeks
# Method: The in vivo effects of compounds were determined in a mouse subcutaneous xenograft tumor model wherein AN3-CA cells were implanted subcutaneously into the hind flank of athymic nude mice. Briefly, seven-week-old mice were injected with 2×10^6 AN3-CA cells on the right hind flank. […] The vehicle for these studies was 20% DMSO, 20% cremophor, and 60% water. The test compound was administered on daily schedule (Monday through Friday) for two weeks at a concentration of 50 mg/kg by intraperitoneal (“IP”) injection. The mice were sacrificed and the tumors were excised for western blot analysis. Tumor volume was determined using the formula L×W2×0.5, where L is the longest length, and W is the shortest length. Tumor volume and body weight was measured twice a week.
# The study was carried out as described above for 2,2-difluoro-N-(3-(5-morpholino-1H-benzo[d]imidazol-2-yl)-1H-indazol-5-yl)cyclopropanecarboxamide, except that the test compound used was 2,2-difluoro-N-(3-(5-(2-methylmorpholino)-1H-benzo[d]imidazol-2-yl)-1H-indazol-5-yl)cyclopropanecarboxamide. Data are shown in FIGS. 10A and 10B for the effect of the compound on tumor volume and body weight, respectively.
# [4] = TR-FRET Lanthascreen Kinase Binding Assay, read-out: PDK1 Kinase assays (IC50, μM) Binding Assay
# [5] = tested in triplicate, FIG. 5, read-out: IC50 in PDK1 time resolved-FRET LanthaScreen Kinase Binding Assay
# [6] = PTEN knockdown shRNA, read-out: IC50 for cell viability, PTEN knockdown shRNA cells
# T1 sequence (O15530 whole entry): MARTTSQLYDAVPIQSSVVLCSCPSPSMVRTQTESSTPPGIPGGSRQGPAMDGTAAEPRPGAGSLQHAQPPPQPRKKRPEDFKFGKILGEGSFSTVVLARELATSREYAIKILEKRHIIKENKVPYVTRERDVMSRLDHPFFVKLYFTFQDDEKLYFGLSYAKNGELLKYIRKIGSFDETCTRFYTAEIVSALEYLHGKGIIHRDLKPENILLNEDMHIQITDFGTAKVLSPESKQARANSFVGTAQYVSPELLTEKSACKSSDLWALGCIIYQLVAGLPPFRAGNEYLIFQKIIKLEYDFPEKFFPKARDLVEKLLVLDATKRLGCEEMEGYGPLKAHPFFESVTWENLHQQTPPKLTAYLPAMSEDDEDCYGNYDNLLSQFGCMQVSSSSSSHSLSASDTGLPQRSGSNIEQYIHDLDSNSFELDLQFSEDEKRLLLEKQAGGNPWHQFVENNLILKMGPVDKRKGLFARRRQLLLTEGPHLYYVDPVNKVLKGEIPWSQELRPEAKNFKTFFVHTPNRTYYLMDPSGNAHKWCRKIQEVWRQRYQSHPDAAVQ
IC50 (PDK1 [1]; [4]),IC50 (PDK1 [1]; [5]),IC50 (PDK1 [2]),"Kinase profiling activity against PDK1 (in words) (PDK1 [2]; profiling at 500 nM, FIG. 8)",IC50 [3],SMILES,IC50 (HS578T cell line; [6]),Effect on tumor burden (tumor volume) compared to the vehicle control (AN3-CA cells),"IC50 (HS578T cell line; control (scrambled) treated cells, read-out: IC50 for cell viability, control treated cells)"
0.08 µM,0.08 µM,80 nM,good activity,75.6 nM,"O=C(Nc1ccc2[nH]nc(-c3nc4ccc(N5CCOCC5)cc4[nH]3)c2c1)C1CC1(F)F (centres unmarked) [Compound 1, 2,2-difluoro-N-(3-(5-morpholino-1H-benzo[d]imidazol-2-yl)-1H-indazol-5-yl)cyclopropanecarboxamide]",1200 nM,modest effect on tumor burden,
0.094 µM,0.094 µM,94 nM,,76.7 nM,"CC1CN(c2ccc3nc(-c4n[nH]c5ccc(NC(=O)C6CC6(F)F)cc45)[nH]c3c2)CCO1 (centres unmarked) [Compound 2, 2,2-difluoro-N-(3-(5-(2-methylmorpholino)-1H-benzo[d]imidazol-2-yl)-1H-indazol-5-yl)cyclopropanecarboxamide]",800 nM,profound and significant effect on tumor burden,2200 nM

# Source: patent US8569511B2, “Substituted 3-(1H-benzo[d]imidazol-2-yl)-1H-indazole analogs as inhibitors of the PDK1 kinase” (University of Utah Research Foundation, priority 2011, dated 2013)
